From ChEMBL document CHEMBL1201862, “PubChem BioAssay data set” (2004)
Each block holds one molecule with its values, some of them ahead of it. The source made the active and inactive calls.

What was measured:
SUMO-activating enzyme [1] = target: T1, SUMO-activating enzyme (Homo sapiens, UniProt Q9UBT2); assay: inhibitors of in vitro SUMOylation cascade, primary screen, biochemical, HTRF, uHTS (AID 2006); type: protein-complex assay
SUMO-activating enzyme [2] = target: T1, SUMO-activating enzyme; assay: SUMOylation inhibitor hit validation, confirmation, SUMOylation inhibitor project, biochemical, AlphaScreen (AID 2018); type: functional
[3] = inhibition of K1F phage lysis, E. coli UTI89, bacterial capsule biogenesis inhibitors, alamar blue (AID 488966); type: functional
Hexokinase = Hexokinase (Trypanosoma brucei, UniProt Q38C41); assay: Confirmation assay for inhibitors of Trypanosoma brucei hexokinase 1-Analogue-first series. [Related pubchem assays (depositor defined):AID1430, AID1632, AID2516, AID2560, AID2579, AID2600, AID449725, AID492951]; type: functional
Hexokinase, sequence (Q38C41 whole entry): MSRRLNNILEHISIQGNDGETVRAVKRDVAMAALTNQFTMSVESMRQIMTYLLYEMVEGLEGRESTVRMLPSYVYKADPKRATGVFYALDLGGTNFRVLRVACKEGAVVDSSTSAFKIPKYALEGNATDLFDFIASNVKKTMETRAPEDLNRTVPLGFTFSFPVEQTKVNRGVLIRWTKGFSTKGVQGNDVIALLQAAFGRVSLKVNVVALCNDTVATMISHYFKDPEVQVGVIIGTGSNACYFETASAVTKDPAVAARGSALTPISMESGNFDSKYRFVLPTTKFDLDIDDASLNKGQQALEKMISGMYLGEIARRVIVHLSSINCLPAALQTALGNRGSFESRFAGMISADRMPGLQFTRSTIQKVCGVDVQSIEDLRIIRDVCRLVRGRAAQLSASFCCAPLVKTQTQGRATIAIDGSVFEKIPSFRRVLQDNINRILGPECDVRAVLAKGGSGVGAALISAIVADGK

[4] = target: T2, Tyrosine-protein phosphatase non-receptor type 7 (Homo sapiens, UniProt P35236); assay: redox-dependent HePTP inhibition, mechanism study, biochemical, fluorescence (AID 2068); type: functional
T2 sequence (P35236 whole entry): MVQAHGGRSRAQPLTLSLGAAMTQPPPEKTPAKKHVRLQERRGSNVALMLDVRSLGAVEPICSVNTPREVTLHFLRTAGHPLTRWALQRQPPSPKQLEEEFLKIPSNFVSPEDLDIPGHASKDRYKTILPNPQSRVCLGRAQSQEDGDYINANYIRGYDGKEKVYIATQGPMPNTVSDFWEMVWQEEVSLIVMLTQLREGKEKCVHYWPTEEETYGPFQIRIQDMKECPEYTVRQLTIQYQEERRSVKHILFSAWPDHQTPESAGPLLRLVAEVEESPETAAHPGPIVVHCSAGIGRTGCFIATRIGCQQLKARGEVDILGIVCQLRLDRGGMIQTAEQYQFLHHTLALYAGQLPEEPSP

[5] = target: T3, RNA-binding protein pos-1 (Caenorhabditis elegans, UniProt G5EF15); assay: inhibitors of POS-1/mex-3 RNA binding, dose response, biochemical, fluorescence polarization (AID 1964);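 also: purified POS-1 fused to maltose binding protein made in E. coli; potency of compounds blocking POS-1 binding to fluorescent RNA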
T3 sequence (G5EF15 whole entry): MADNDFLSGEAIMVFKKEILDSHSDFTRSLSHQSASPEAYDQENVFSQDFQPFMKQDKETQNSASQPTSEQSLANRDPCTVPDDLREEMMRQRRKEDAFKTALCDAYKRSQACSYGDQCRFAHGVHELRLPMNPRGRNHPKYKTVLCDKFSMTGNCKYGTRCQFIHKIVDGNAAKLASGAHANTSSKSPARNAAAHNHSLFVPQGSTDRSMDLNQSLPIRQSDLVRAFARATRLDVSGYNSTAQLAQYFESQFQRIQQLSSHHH

Troponin, cardiac muscle = Troponin, cardiac muscle (Homo sapiens, UniProt P19429+P45379+P63316); assay: inhibitors of cardiac thin filament calcium sensitivity, dose response, biochemical, fluorescence, cardiac regulated thin filaments, triplicate IC50 (AID 504742); type: protein-complex assay
[6] = target: T4, Polyadenylate-binding protein 1 (Homo sapiens, UniProt P11940); assay: PABP1 MLLE–PAM2 interaction inhibitors, dose response, miRNA deadenylation inhibitor project, biochemical, fluorescence polarization, Cy5-PAM2 peptide, secondary (AID 602260); type: functional; settings: read-out: IC50_Mean
T4 sequence (P11940 whole entry): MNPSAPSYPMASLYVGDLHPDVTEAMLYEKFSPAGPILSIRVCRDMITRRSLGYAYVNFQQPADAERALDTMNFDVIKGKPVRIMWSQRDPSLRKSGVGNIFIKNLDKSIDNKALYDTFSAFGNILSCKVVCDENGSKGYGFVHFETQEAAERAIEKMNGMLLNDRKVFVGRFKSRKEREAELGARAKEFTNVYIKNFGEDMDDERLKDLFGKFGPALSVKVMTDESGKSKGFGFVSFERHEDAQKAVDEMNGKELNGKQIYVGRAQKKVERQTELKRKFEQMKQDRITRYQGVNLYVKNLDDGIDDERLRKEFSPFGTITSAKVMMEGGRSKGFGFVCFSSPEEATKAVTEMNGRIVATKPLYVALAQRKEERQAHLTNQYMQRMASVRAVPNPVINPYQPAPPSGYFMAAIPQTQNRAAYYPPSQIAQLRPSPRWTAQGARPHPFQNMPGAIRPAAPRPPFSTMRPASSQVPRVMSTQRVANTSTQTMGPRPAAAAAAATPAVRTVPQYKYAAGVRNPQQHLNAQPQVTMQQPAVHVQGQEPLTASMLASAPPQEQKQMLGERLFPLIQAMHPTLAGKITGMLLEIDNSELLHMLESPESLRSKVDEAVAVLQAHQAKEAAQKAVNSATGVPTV

[7] = target: T5, Zinc finger protein mex-5 (Caenorhabditis elegans, UniProt Q9XUB2); assay: MEX-5/TCR-2 RNA interaction inhibitors, dose response, biochemical, C. elegans, fluorescence polarization (AID 1960)
T5 sequence (Q9XUB2 whole entry): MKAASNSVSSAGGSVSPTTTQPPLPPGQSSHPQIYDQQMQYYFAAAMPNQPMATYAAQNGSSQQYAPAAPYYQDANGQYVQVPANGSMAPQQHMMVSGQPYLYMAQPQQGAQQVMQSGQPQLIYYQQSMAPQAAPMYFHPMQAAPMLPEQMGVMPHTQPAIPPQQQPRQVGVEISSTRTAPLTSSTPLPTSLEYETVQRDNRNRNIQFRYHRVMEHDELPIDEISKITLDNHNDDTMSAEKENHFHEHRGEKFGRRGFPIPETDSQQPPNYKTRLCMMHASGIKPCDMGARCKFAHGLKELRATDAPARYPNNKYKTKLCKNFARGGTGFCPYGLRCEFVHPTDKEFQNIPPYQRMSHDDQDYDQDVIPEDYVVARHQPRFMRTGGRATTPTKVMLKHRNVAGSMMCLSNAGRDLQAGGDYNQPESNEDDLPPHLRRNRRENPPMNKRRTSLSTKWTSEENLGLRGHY

[8] = target: Histone-lysine N-methyltransferase NSD2 (Homo sapiens, UniProt O96028); type: biochemical
Histone-lysine N-methyltransferase NSD2, sequence (O96028 whole entry): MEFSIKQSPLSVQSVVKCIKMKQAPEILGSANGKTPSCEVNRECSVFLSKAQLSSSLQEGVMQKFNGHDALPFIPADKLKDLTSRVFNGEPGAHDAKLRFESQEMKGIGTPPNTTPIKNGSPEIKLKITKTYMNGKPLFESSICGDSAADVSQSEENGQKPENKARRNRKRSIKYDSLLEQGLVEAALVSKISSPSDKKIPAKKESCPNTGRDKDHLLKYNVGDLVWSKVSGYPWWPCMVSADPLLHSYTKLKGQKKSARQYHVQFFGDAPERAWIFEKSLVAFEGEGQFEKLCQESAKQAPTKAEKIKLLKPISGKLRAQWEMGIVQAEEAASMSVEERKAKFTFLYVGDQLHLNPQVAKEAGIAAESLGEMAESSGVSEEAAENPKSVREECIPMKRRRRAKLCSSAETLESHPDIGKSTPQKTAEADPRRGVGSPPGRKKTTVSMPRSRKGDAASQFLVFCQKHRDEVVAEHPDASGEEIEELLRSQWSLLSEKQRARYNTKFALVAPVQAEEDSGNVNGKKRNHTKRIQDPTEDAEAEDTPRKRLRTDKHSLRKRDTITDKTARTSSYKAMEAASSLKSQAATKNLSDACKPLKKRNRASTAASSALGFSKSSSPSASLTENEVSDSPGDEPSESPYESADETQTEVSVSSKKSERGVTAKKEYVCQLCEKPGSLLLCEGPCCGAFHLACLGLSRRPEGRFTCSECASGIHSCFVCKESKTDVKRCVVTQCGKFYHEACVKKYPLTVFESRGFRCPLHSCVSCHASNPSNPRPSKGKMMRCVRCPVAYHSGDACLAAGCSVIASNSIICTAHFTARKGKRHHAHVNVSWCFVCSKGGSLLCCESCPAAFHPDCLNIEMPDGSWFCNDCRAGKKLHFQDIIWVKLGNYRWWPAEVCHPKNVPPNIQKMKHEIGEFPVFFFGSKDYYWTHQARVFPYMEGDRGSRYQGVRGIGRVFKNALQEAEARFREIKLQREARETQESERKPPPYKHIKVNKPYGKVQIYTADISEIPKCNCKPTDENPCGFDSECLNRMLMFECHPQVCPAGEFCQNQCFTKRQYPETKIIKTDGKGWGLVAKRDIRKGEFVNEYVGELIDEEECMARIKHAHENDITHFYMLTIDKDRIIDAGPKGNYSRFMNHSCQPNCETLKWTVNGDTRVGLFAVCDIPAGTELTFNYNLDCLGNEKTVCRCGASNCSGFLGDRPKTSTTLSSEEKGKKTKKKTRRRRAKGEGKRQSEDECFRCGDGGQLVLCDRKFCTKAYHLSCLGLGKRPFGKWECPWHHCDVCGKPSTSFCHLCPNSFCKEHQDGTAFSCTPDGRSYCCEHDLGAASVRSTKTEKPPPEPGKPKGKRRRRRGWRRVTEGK

[9] = target: T6, Rac GTPase-activating protein 1 (Homo sapiens, UniProt Q9H0H5); assay: MgcRacGAP GTPase-activating activity inhibitors, confirmation, biochemical, ADP Hunter fluorescence, primary and confirmatory (AID 624330); type: functional
T6 sequence (Q9H0H5 whole entry): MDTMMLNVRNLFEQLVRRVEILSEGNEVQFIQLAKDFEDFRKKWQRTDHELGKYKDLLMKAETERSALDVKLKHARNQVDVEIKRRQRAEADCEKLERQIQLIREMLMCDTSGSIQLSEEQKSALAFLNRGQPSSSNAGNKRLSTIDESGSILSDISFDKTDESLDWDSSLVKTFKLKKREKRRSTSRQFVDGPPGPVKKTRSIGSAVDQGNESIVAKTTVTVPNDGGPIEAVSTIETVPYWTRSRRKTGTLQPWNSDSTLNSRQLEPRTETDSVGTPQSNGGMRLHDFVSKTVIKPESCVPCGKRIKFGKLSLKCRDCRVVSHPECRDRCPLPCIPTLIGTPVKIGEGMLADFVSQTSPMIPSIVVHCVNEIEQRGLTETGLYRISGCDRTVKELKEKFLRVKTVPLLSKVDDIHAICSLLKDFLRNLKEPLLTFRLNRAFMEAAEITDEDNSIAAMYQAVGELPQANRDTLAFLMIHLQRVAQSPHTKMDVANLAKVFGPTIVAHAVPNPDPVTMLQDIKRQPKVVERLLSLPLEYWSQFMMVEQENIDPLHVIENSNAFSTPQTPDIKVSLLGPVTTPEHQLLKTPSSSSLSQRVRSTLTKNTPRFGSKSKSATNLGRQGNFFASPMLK

[10] = target: T4, Polyadenylate-binding protein 1; assay: PABP1 MLLE–PAM2 binding inhibitor potency, dose response, biochemical, fluorescence polarization, FITC-PAM2 peptide (AID 602259); type: functional; settings: read-out: IC50_Mean
[11] = target: Induced myeloid leukemia cell differentiation protein Mcl-1 (Homo sapiens, UniProt Q07820); type: functional
Induced myeloid leukemia cell differentiation protein Mcl-1, sequence (Q07820 whole entry): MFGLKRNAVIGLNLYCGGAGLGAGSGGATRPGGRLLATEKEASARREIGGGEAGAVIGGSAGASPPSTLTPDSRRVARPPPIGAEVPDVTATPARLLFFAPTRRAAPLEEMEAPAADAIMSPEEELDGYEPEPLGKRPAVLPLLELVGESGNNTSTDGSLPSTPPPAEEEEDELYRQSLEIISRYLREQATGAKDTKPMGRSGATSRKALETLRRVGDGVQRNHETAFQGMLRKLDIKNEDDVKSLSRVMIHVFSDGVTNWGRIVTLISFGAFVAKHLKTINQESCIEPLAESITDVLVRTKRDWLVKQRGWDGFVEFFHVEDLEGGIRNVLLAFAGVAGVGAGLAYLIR

Genome polyprotein = Genome polyprotein (dengue virus type 2, UniProt P29990); assay: Dengue-2 NS5 methyltransferase inhibitors, primary screen, biochemical, confirmation dose response (AID 588689); type: functional
Genome polyprotein, sequence (P29990 2492-3391 limits assumed): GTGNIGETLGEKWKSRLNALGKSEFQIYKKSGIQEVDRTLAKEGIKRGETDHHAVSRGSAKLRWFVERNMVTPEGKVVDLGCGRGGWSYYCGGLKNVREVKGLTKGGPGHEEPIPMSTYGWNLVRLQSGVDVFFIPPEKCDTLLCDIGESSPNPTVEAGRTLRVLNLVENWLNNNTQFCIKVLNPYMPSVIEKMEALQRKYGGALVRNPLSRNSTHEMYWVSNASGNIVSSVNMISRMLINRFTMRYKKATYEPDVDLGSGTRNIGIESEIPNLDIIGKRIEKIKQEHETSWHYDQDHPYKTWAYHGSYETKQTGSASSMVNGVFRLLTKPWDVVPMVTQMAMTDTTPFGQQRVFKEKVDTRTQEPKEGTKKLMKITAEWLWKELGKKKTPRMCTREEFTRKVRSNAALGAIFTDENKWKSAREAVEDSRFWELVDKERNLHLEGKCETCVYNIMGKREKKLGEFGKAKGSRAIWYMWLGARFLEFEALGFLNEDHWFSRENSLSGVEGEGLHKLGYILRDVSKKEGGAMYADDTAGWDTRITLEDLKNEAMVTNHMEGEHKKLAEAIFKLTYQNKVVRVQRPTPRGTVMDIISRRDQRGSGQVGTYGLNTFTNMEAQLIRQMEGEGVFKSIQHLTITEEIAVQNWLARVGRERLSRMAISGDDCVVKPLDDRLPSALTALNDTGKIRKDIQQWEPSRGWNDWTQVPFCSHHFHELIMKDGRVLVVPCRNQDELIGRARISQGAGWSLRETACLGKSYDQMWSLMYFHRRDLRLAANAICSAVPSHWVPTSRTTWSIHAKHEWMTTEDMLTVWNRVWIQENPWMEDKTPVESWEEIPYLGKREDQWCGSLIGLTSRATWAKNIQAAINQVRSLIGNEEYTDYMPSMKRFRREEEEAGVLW

T1 sequence (Q9UBE0 whole entry): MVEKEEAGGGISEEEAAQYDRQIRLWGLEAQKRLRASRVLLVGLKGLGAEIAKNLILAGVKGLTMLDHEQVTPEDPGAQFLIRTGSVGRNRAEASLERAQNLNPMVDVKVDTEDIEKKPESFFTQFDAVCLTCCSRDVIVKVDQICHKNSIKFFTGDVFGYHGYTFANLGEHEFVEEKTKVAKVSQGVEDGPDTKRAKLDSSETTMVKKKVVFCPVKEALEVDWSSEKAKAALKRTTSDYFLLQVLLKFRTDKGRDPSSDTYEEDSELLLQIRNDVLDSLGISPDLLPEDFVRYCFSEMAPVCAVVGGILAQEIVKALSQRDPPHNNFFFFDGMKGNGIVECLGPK
T1 sequence (Q9UBT2 whole entry): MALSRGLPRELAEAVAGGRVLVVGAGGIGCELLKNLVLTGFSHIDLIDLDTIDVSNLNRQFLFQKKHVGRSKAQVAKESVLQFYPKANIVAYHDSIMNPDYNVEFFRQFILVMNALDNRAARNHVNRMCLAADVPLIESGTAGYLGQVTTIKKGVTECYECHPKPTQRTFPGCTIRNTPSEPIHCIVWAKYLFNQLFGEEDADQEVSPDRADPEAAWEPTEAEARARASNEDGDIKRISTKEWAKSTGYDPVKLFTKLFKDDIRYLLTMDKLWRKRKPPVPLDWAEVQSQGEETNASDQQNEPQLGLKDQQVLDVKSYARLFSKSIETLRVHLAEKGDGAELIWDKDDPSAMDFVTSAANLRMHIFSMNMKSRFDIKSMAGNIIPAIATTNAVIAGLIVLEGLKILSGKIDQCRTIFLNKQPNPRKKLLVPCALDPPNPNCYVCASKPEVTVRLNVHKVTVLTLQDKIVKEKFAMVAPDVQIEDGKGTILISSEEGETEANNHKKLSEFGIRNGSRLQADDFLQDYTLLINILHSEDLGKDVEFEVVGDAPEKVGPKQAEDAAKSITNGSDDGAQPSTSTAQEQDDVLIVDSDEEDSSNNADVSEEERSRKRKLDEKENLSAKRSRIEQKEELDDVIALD

Structure (SMILES): C=CCOc1c(Br)cc(/C=C2\SC(Nc3ccccc3)=NC2=O)cc1OC
IC50 (SUMO-activating enzyme [1]): 12 µM (active)
IC50 (SUMO-activating enzyme [2]): 29.9 µM (active)

Structure (SMILES): CCOc1ccc(Br)cc1CSC(=N)N
IC50 [3]: > 300 µM (active)

Structure (SMILES): CN(C)c1ccc(NC(=O)Cn2sc3ccccc3c2=O)cc1
IC50 (Hexokinase): 7.29 µM (active)

The next lines start with the values.

IC50 [4]: 0.472 µM (active)
Structure (SMILES): O=C(NCCc1ccccc1)Nc1ccc2nc(-c3ccco3)c(-c3ccco3)nc2c1

EC50 [5]: 19.5 µM (inconclusive)
IC50 (Troponin, cardiac muscle): 20.9 µM (inactive)
IC50 [6]: > 66 µM (inactive)
EC50 [7]: 10.1 µM (active)
AC50 [8]: 10.8 µM (active)
IC50 [9]: 159 µM (active)
IC50 [10]: 53.2 µM (inactive)
IC50 [11]: > 54 µM (active)
IC50 (Genome polyprotein): 51 µM (active)
Structure (SMILES): O=C(O)c1ccc2nc(-c3ccco3)c(-c3ccco3)nc2c1
